Measured values reported in paper PMC8180025, “Antibacterial, antifungal and antioxidant activities of whole plant chemical constituents of Rumex abyssinicus” (BMC Complementary Medicine and Therapies, 2021).
Converted amounts (≈) assume the structure as drawn. “And” between values parts separate entries of the source, which are not always exact repeats. Identical values can stand only once. Marks after values point to notes of the source that are not given here.

How the values were obtained:
[1] = DPPH free radical scavenging assay; format: biochemical; conditions: mean ± SD, triplicate
Method: The free radical scavenging activity of extracts and compounds was evaluated according to described methods. The EC50 (μg/ml), which is the amount of sample necessary to inhibit by 50% the absorbance of free radical DPPH was calculated. Vitamin C was used as a standard control. All the analyses were carried out in triplicate.

[2] = Gallic acid equivalent antioxidant capacity (GEAC) assay; format: biochemical; conditions: laccase/ABTS, 420 nm after 240 s; mean ± SD
Method: The GEAC test was done as previously described with slight modifications. In a quartz cuvette, to 950 μL acetate buffer (pH =5.0, 100 mM), the following were added: 20 μL laccase (1 mM stock solution), 20 μL test sample, 10 μL ABTS (2,2′-azinobis(3-ethylbenzothiazoline-6-sulfonic acid) (74 mM stock solution). The purification of laccase from Sclerotinia sclerotiorum was done according to the protocol described. The sample concentrations in the assay mixture were 800, 400, 200, 100, 10 μg/mL for the extracts and 200, 100, 50, 25, 12.5, 6.25, 3.125, 1.56 μg/mL for the isolated compounds. The content of the generated ABTS^●+ radical was measured at 420 nm after 240 s reaction time and was converted to gallic acid equivalents by the use of a calibration curve (Pearson’s correlation coefficient: r = 0.997) constructed with 0, 4, 10, 14, 28, 56, 84 μM gallic acid standards rather than Trolox. Experiments were done in triplicate.

[3] = test system: Pseudomonas aeruginosa ATCC27853; assay: Broth microdilution MIC/MMC; conditions: for MMC/MIC / MMC: P. aeruginosa; for MMC: sub-culturing after broth microdilution; for MIC: Pseudomonas aeruginosa, ATCC27853
Shigella flexneri SDINT = assay: Broth microdilution MIC/MMC; conditions: for MMC/MIC / MMC: S. flexneri; for MMC: sub-culturing after broth microdilution; for MIC: Shigella flexneri
[4] = test system: Staphylococcus aureus ATCC25923; assay: Broth microdilution MIC/MMC; conditions: for MMC/MIC / MMC: S. aureus; for MMC: sub-culturing after broth microdilution; for MIC: Staphylococcus aureus, ATCC25923
[5] = test system: methicillin sensitive S. aureus MSSA01; assay: Broth microdilution MIC/MMC; conditions: for MMC/MIC / MMC: MSSA01; for MMC: sub-culturing after broth microdilution; for MIC: Staphylococcus aureus
[6] = test system: methicillin resistant S. aureus MRSA03; assay: Broth microdilution MIC/MMC; conditions: for MMC/MIC / MMC: MRSA03; for MMC: sub-culturing after broth microdilution; for MIC: Staphylococcus aureus
[7] = test system: Candida albicans ATCC10231; assay: Broth microdilution MIC/MMC; conditions: for MMC/MIC / MMC: C. albicans; for MMC: sub-culturing after broth microdilution; for MIC: Candida albicans, ATCC10231
[8] = test system: Cryptococcus neoformans H99; assay: Broth microdilution MIC/MMC; conditions: for MMC/MIC / MMC: C. neoformans; for MMC: sub-culturing after broth microdilution; for MIC: Cryptococcus neoformans, H99
P. aeruginosa = assay: Checkerboard combination with antibiotic (FIC); format: cell-based, Pseudomonas aeruginosa; conditions: combined with ciprofloxacin
S. flexneri = assay: Checkerboard combination with antibiotic (FIC); format: cell-based, Shigella flexneri; conditions: combined with ciprofloxacin
Method: (§1) The inoculum was initially prepared as described above. The test microorganisms were inoculated into a 96-well microtitre plates and a serial dilution of two antimicrobial agents: antibiotic and MeOH extract, compound 2 or 4. Each well consisted of unique combination of test sample and antibiotic concentrations. The plates were then incubated for 24 h at 37 °C. The analyses were performed in triplicates. And the antimicrobial agents interactions were evaluated by calculating the fractional inhibitory concentration (FIC) indices. The FIC is defined as follows: MIC of antibiotic tested in combination/MIC of antibiotic tested alone + MIC of extract/compound tested in combination/MIC of extract/compound tested alone. The FIC index is interpreted as FIC ≤ 0.5: synergistic effect, 0.5 < FIC ≤1: additive effect, 1 < FIC ≤2: indifferent effect, and FIC > 2.0: antagonistic effect.

S. aureus = assay: Checkerboard combination with antibiotic (FIC); format: cell-based, Staphylococcus aureus; conditions: combined with ciprofloxacin
MSSA01 = assay: Checkerboard combination with antibiotic (FIC); format: cell-based, Staphylococcus aureus; conditions: combined with ciprofloxacin
MRSA03 = assay: Checkerboard combination with antibiotic (FIC); format: cell-based, Staphylococcus aureus; conditions: combined with ciprofloxacin
C. albicans = assay: Checkerboard combination with antibiotic (FIC); format: cell-based, Candida albicans; conditions: combined with fluconazole, checkerboard
C. neoformans = assay: Checkerboard combination with antibiotic (FIC); format: cell-based, Cryptococcus neoformans; conditions: combined with fluconazole, checkerboard
[9] = test system: bacterial and yeast species; assay: Checkerboard combination with antibiotics, whole panel; format: cell-based; conditions: overall statement over the microorganisms tested
Method: as §1

Compound: Cc1cc(O)c2c(c1)C(=O)c1cccc(O)c1C2=O [Compound 1, Chrysophanol]
- DPPH free radical scavenging activity (EC50) [1]: 4.52 ± 0.36^d μg/mL
- Gallic acid equivalent antioxidant capacity (GEAC) [2]: 104.87 ± 1.43^d μg/mL
- MMC/MIC [3]: 2
- MMC [3]: 128 µg/mL
- MIC [3]: 64 µg/mL (≈ 252 µM)
- MMC/MIC (Shigella flexneri SDINT): 1
- MMC (Shigella flexneri SDINT): 32 µg/mL
- MIC (Shigella flexneri SDINT): 32 µg/mL (≈ 126 µM)
- MMC/MIC [4]: 2
- MMC [4]: 64 µg/mL
- MIC [4]: 32 µg/mL (≈ 126 µM)
- MMC/MIC [5]: 1
- MMC [5]: 64 µg/mL
- MIC [5]: 64 µg/mL (≈ 252 µM)
- MMC/MIC [6]: 2
- MMC [6]: 128 µg/mL
- MIC [6]: 64 µg/mL (≈ 252 µM)
- MMC/MIC [7]: 1
- MMC [7]: 64 µg/mL
- MIC [7]: 64 µg/mL (≈ 252 µM)
- MMC/MIC [8]: 1
- MMC [8]: 32 µg/mL
- MIC [8]: 32 µg/mL (≈ 126 µM)

Compound: CC(C)[C@@H](C)C=C[C@@H](C)[C@H]1CC[C@H]2[C@]3(O)C=CC4(O)CC(O)CC[C@]4(C)[C@H]3CC[C@]12C (stereo partly shown) [Compound 3, Ergosta-6,22-diene-3,5,8-triol]
- MMC/MIC [3]: 2
- MMC [3]: 256 µg/mL
- MIC [3]: 128 µg/mL (≈ 297 µM)
- MMC (Shigella flexneri SDINT): >256 µg/mL
- MIC (Shigella flexneri SDINT): 128 µg/mL (≈ 297 µM)
- MMC [4]: >256 µg/mL
- MIC [4]: 256 µg/mL (≈ 594 µM)
- MMC [5]: >256 µg/mL
- MIC [5]: > 256 µg/mL
- MMC [6]: >256 µg/mL
- MIC [6]: > 256 µg/mL
- MMC [7]: >256 µg/mL
- MIC [7]: 128 µg/mL (≈ 297 µM)
- MMC/MIC [8]: 2
- MMC [8]: 128 µg/mL
- MIC [8]: 64 µg/mL (≈ 149 µM)

Compound: Cc1cc(O)c2c(c1)C(=O)c1cc(O)cc(O)c1C2=O [Compound 4, Emodin]
- Interpretation (of FIC index) (P. aeruginosa): Synergistic (FIC ≤ 0.5: synergistic effect)
- FICEx / FIC2 / FIC5 (MIC of extract/compound tested in combination/MIC of extract/compound tested alone) (P. aeruginosa; checkerboard): 0.125
- Interpretation (of FIC index) (S. flexneri): Synergistic (FIC ≤ 0.5: synergistic effect)
- FIC (fractional inhibitory concentration index) (S. flexneri; checkerboard): 0.31
- FICEx / FIC2 / FIC5 (MIC of extract/compound tested in combination/MIC of extract/compound tested alone) (S. flexneri; checkerboard): 0.25
- FICA (MIC of antibiotic tested in combination/MIC of antibiotic tested alone) (S. flexneri; checkerboard, 24 h at 37 °C): 0.0625
- Interpretation (of FIC index) (S. aureus): Additive (0.5 < FIC ≤1: additive effect)
- FIC (fractional inhibitory concentration index) (S. aureus; checkerboard): 0.625
- FICEx / FIC2 / FIC5 (MIC of extract/compound tested in combination/MIC of extract/compound tested alone) (S. aureus; checkerboard): 0.125
- FICA (MIC of antibiotic tested in combination/MIC of antibiotic tested alone) (S. aureus; checkerboard, 24 h at 37 °C): 0.5
- FIC (fractional inhibitory concentration index) (MSSA01): 0.5
- FICEx / FIC2 / FIC5 (MIC of extract/compound tested in combination/MIC of extract/compound tested alone) (MSSA01): 0.25
- FICA (MIC of antibiotic tested in combination/MIC of antibiotic tested alone) (MSSA01; 24 h at 37 °C): 0.25
- FIC (fractional inhibitory concentration index) (MRSA03): 0.375
- FICEx / FIC2 / FIC5 (MIC of extract/compound tested in combination/MIC of extract/compound tested alone) (MRSA03): 0.125
- FICA (MIC of antibiotic tested in combination/MIC of antibiotic tested alone) (MRSA03; 24 h at 37 °C): 0.25
- FIC (fractional inhibitory concentration index) (C. albicans): 0.75
- FICEx / FIC2 / FIC5 (MIC of extract/compound tested in combination/MIC of extract/compound tested alone) (C. albicans): 0.5
- FICA (MIC of antibiotic tested in combination/MIC of antibiotic tested alone) (C. albicans; 24 h at 37 °C): 0.25
- FIC (fractional inhibitory concentration index) (C. neoformans): 0.75
- FICEx / FIC2 / FIC5 (MIC of extract/compound tested in combination/MIC of extract/compound tested alone) (C. neoformans): 0.5
- FICA (MIC of antibiotic tested in combination/MIC of antibiotic tested alone) (C. neoformans; 24 h at 37 °C): 0.25
- DPPH free radical scavenging activity (EC50) [1]: 10.69 ± 0.51^f μg/mL
- Gallic acid equivalent antioxidant capacity (GEAC) [2]: 79.54 ± 1.26 μg/mL and 79.54 ± 1.26^e μg/mL
- effect of the association with ciprofloxacin (bacteria) / fluconazole (yeasts) [9]: synergistic
- MMC/MIC [3]: 1
- MMC [3]: 16 µg/mL
- MIC [3]: 16 µg/mL (≈ 59.2 µM)
- MMC/MIC (Shigella flexneri SDINT): 2
- MMC (Shigella flexneri SDINT): 16 µg/mL
- MIC (Shigella flexneri SDINT): 8 µg/mL (≈ 29.6 µM)
- MMC/MIC [4]: 1
- MMC [4]: 8 µg/mL
- MIC [4]: 8 µg/mL (≈ 29.6 µM)
- MMC/MIC [5]: 1
- MMC [5]: 32 µg/mL
- MIC [5]: 32 µg/mL (≈ 118 µM)
- MMC/MIC [6]: 1
- MMC [6]: 32 µg/mL
- MIC [6]: 32 µg/mL (≈ 118 µM)
- MMC/MIC [7]: 1
- MMC [7]: 8 µg/mL
- MIC [7]: 8 µg/mL (≈ 29.6 µM)
- MMC/MIC [8]: 1
- MMC [8]: 8 µg/mL
- MIC [8]: 8 µg/mL (≈ 29.6 µM)

Compound: O=C1c2cc(O)cc(O)c2C(=O)c2c(O)cc(CO)cc21 [Compound 5, 6-hydroxyemodin (Citreorosein)]
- DPPH free radical scavenging activity (EC50) [1]: 9.88 ± 0.62^f μg/mL
- Gallic acid equivalent antioxidant capacity (GEAC) [2]: 81.09 ± 0.93 μg/mL and 81.09 ± 0.93^e μg/mL
- MMC/MIC [3]: 2
- MMC [3]: 64 µg/mL
- MIC [3]: 32 µg/mL (≈ 112 µM)
- MMC/MIC (Shigella flexneri SDINT): 1
- MMC (Shigella flexneri SDINT): 32 µg/mL
- MIC (Shigella flexneri SDINT): 32 µg/mL (≈ 112 µM)
- MMC/MIC [4]: 1
- MMC [4]: 32 µg/mL
- MIC [4]: 32 µg/mL (≈ 112 µM)
- MMC/MIC [5]: 2
- MMC [5]: 256 µg/mL
- MIC [5]: 128 µg/mL (≈ 447 µM)
- MMC/MIC [6]: 2
- MMC [6]: 256 µg/mL
- MIC [6]: 128 µg/mL (≈ 447 µM)
- MMC/MIC [7]: 2
- MMC [7]: 32 µg/mL
- MIC [7]: 16 µg/mL (≈ 55.9 µM)
- MMC/MIC [8]: 2
- MMC [8]: 32 µg/mL
- MIC [8]: 16 µg/mL (≈ 55.9 µM)

Compound: O=C1O[C@H]([C@@H](O)CO)C(O)=C1O [Vitamin C, reference compound]
- DPPH free radical scavenging activity (EC50) [1]: 1.81 ± 0.19^h μg/mL

Compound: O=C(O)c1cn(C2CC2)c2cc(N3CCNCC3)c(F)cc2c1=O [ciprofloxacin, Ciprofloxacin, reference compound]
- MMC/MIC [3]: 1
- MMC [3]: 0.5 µg/mL
- MIC [3]: 0.5 µg/mL (≈ 1.51 µM)
- MMC/MIC (Shigella flexneri SDINT): 1
- MMC (Shigella flexneri SDINT): 8 µg/mL
- MIC (Shigella flexneri SDINT): 8 µg/mL (≈ 24.1 µM)
- MMC/MIC [4]: 1
- MMC [4]: 0.5 µg/mL
- MIC [4]: 0.5 µg/mL (≈ 1.51 µM)
- MMC/MIC [5]: 1
- MMC [5]: 4 µg/mL
- MIC [5]: 4 µg/mL (≈ 12.1 µM)
- MMC/MIC [6]: 1
- MMC [6]: 4 µg/mL
- MIC [6]: 4 µg/mL (≈ 12.1 µM)

Compound: OC(Cn1cncn1)(Cn1cncn1)c1ccc(F)cc1F [fluconazole, reference compound]
- MMC/MIC [7]: 1
- MMC [7]: 1 µg/mL
- MIC [7]: 1 µg/mL (≈ 3.27 µM)
- MMC/MIC [8]: 1
- MMC [8]: 2 µg/mL
- MIC [8]: 2 µg/mL (≈ 6.53 µM)
